Assay results as given in patent US11925649B2, “Treatments for diabetic neuropathy” (University of Manitoba, priority 2010, dated 2024).

Tests used:
[1] = tested on: AMP-activated protein kinase (AMPK); experiment: AMPK expression in DRG of STZ-diabetic mice (Western blot); assay type: in vivo, mouse; details: daily s.c. injections for 8 weeks, lumbar DRG
Description: Lumbar DRG were isolated and rinsed in ice-cold solution containing STE buffer (250 mmol/l sucrose, 10 mmol/l Tris-HCl, 1 mmol/l EDTA, pH 7.4), and then homogenized with a polytron homogenizer ([…] GmbH, Switzerland) using 3×7.5 s grinding pulses at 30 s intervals according to the method taught by Chowdhury et al. (2010, Diabetes 59: 1082-1091).
Quantitative Western blotting was performed as previously disclosed by Chowdhury et al (2010) and Fernyhough et al. (1999, Diabetes 48: 881-889). DRG homogenates of 5-10 μg of protein were resolved on a 10% SDS-PAGE gel and electroblotted onto nitrocellulose membrane. Blots were then blocked in 5% nonfat milk containing 0.05% Tween-20, rinsed in PBS (pH 7.4) and incubated with the following antibodies: polyclonal anti-phospho AMPK (1:1000, Cell Signaling Technology, Danvers, MA, US), polyclonal anti-PGC-1α (1:1000, Santa Cruz Biotechnology Inc, Santa Cruz, CA, USA) and monoclonal anti-ATP synthase β subunit (1:2000 dilution, Mitosciences, Eugene, OR). Extracellular signal-regulated kinase (ERK; 1:2000, Covance, Princeton, NJ, US) was probed as a loading control (previous studies show this protein to not change level of expression in DRG in diabetes). […]

[2] = tested on: STZ-diabetic Sprague Dawley rats; experiment: Prevention of tactile allodynia and sensory nerve conduction slowing in diabetic rats; assay type: in vivo, rat
Description: Two groups of adult female Sprague Dawley rats were made diabetic with a single intraperitoneal injection of 55 mg/kg STZ. […] A third group of adult male rats was maintained as non-diabetic controls. The three groups of rats were monitored for the onset of diabetic painful neuropathy by measuring paw tactile response thresholds at weeks 5 and 9 of diabetes, as taught by Calcutt (1996, Pain: 68:293-299). […] Sensory nerve conduction velocity (SNCV) was measured in the same cohorts of rats after 8 weeks of diabetes by measuring under isoflurane anesthesia, the latency of H waves in the electromyogram of interosseous muscles following electrical stimulation of the sciatic nerve at the sciatic notch and Achilles tendon and then measuring the distance between the two points of nerve stimulation, as taught by Calcutt (J. Clin. Invest. 111:507-514, 2003).

[3] = tested on: STZ diabetic Swiss Webster mice; experiment: Restorative subcutaneous injections in diabetic mice; assay type: in vivo, mouse; details: 10 mg/kg daily s.c. from week 14
Description: Male out-bred Swiss Webster mice were made diabetic with 2 injections of 90 mg/kg STZ on consecutive days. […] The mice were maintained for 14 weeks after STZ injections. […] At 14 weeks, the diabetic mice were separated into two groups. The first was the untreated group of diabetic mice.
The function of the small sensory neurons in diabetic and non-diabetic groups of mice were assessed at 5 wks, 7 wks, 11 wks, and 14 wks after the STZ injections.

[4] = tested on: STZ diabetic C57Bl6J mice; experiment: Prophylactic topical hydrogel application in STZ diabetic mice; assay type: in vivo, mouse
Description: Male C57Bl6J mice were made diabetic with 2 injections of 90 mg/kg STZ on consecutive days, and then separated into three groups. There were also two groups control (non-diabetic) mice. The first group of control (non-diabetic) mice received daily topical treatment with 50 μl Intrasite® hydrogel (Intrasite is a registered trademark of T. J. Smith and Nephew, Hull, England) to both hind paws, with a controlled exposure time of 20 minutes. […] The third group of mice were diabetic mice that received daily topical treatment with 50 μl hydrogel to both hind paws.
Two months after the second STZ injection, the function of the small sensory neurons in all five groups of mice were determined by measuring hind paw thermal response latency following the procedure described in Example 7.
The structural integrity of small sensory neurons was assessed by measuring IENF profiles in hind paw plantar skin as described in Example 7.
A suitable gel is exemplified by Intrasite® sterile hydrogel prod. no. 66027313 (Smith & Nephew Inc, St. Laurent, PQ, CA).

[5] = tested on: STZ diabetic Sprague Dawley rats; experiment: Reversal of thermal hypoalgesia in diabetic rats, subcutaneous; assay type: in vivo, rat; details: 10 mg/kg daily s.c. from week 12; 20th week, 8 weeks of treatment
Description: One group of adult male Sprague Dawley rats were made diabetic with a single intraperitoneal injection of 75 mg/kg STZ, while a second group of adult male rats were maintained as non-diabetic controls. The two groups of rats were monitored for the onset of […] by assessing thermal latency at 4-wk intervals.

[6] = tested on: DRG sensory neurons from wildtype mice; experiment: Neurite outgrowth in sensory neuron cultures from wildtype mice; assay type: cell-based, mouse; details: 1 μM, 24 hr, low dose growth factors
[7] = tested on: sensory neurons from DRG of Sprague Dawley rat; experiment: Total neurite outgrowth at low concentrations of M1R antagonists (immunostaining); assay type: cell-based; details: 24 hr culture
Description: Sensory neurons from cervical, thoracic and lumbar DRG of an adult 3-4 month old male Sprague Dawley rat were isolated and dissociated using the method described in Example 1, and then were cultured for 24 h in serum-free and insulin-free F12 medium in the presence of modified N2 additives. […] Neurite outgrowth was then assessed after a culture period of 24 hr.
Total neurite lengths (i.e., the sum of the length of all neurites produced by an individual neuron) were assessed using an immunostaining method. […] Four images were captured per well and the replicate well frequency was set to n=6. The neuronal marker β-tubulin III (Sigma-Aldrich Canada Ltd.) was applied to formalin fixed cells. The marker was tagged with the fluorescent conjugate Alexa Fluor 488 (Invitrogen Canada Ltd.). Fluorescent images were collected using an Olympus IX71 inverted microscope with a 20×/0.45 PH1 [sequence] objective that was suitable for resolving images on plastic surfaces. […] Captured image fluorescence was thereafter converted to a grayscale 8-bit image to quantify total pixel volume. […] Total pixel volume of the neuron specific cell bodies and neurites were quantified. […] The net pixel volume was normalized against the number of neuronal cells per quantified field.

[8] = control (non-diabetic) mice, 10% hydrogel, treated hindpaw
[9] = diabetic mice, 2% or 10% hydrogel, vs control mice

## CN1CCN(CC(=O)N2c3ccccc3C(=O)Nc3cccnc32)CC1 [pirenzepine, 11-[2-(4-methylpiperazin-1-yl)acetyl]-5H-pyrido[2,3-b][1,4]benzodiazepin-6-1]
[1]
  expression of P-AMPK: restored the expression
  expression of T-AMPK: restored the expression
[2]; 10 mg/kg daily s.c., after 5 weeks of diabetes
  paw tactile response thresholds: significantly higher than vehicle treated diabetic rats
[2]; 10 mg/kg daily s.c., after 8 weeks of diabetes
  sensory nerve conduction velocity (SNCV): partially prevented this deficit
[2]; 10 mg/kg daily s.c., week 9 of diabetes
  paw tactile response thresholds: not different from control rats
[2]; daily s.c., after 5 or 9 weeks of treatment
  paw tactile allodynia: prevents paw tactile allodynia
[3]; 21st week, 7 weeks of treatment
  thermal latency: identical to the non-diabetic controls
[3]; at 21 weeks
  IENF profiles: restored the IENF profiles to approximate those of the non-diabetic control mice
[3]; within 4 weeks of treatment (18 weeks)
  thermal latency: significantly reduced thermal latency
[4]; [8]
  IENF per mm of skin: numerically, but statistically insignificant, increases
  SNP per mm of skin: numerically, but statistically insignificant, increases
[4]; control (non-diabetic) mice, daily topical hydrogel comprising 10% pirenzepine
  thermal response latency: not affected
[4]; [9]
  levels of IENF in treated paw: no significant changes
  levels of SNP in treated paw: no significant changes
[4]; diabetic mice, daily topical 2% or 10% hydrogel, vs control mice
  thermal response latency in treated paw: did not demonstrate any significant changes
[5]
  thermal latency: dropped to approximate the levels in the non-diabetic control rats
[6]
  neurite outgrowth compared with LD control: 2 fold
[7]
  concentration that significantly increased total neurite outgrowth: ≥ 0.003 µM
